According to patent US9675605B2, “Substituted naphthyridine and quinoline compounds as MAO inhibitors” (DART NEUROSCIENCE (CAYMAN) LTD., priority 2013, dated 2017):

Tests used:
Human recombinant MAO-A = Human recombinant MAO-A (Homo sapiens (Human), UniProt P21397); test: MAO enzymatic assay, MAO-B selectivity (MAO-A/MAO-B); assay type: biochemical; conditions: selectivity for MAO-B over MAO-A; values given as ranges
Description: (§1) The MAO enzymatic assay was performed according to the fluorometric method described by Matsumoto and colleagues (Matsumoto et al., Clin. Biochem. 1985, 18, 126-129) with the following modifications. Human recombinant MAO-A and MAO-B expressed in insect cells were used. For both assays, test compound and/or vehicle were preincubated with purified enzyme in phosphate buffer pH 7.4 for 15 minutes at 37° C. The reaction was initiated by addition of […] kynuramine. Following a 60 minute incubation period, the reaction was terminated by the addition of 6 N NaOH. The amount of 4-hydroxyquinoline that formed was determined by spectrofluorimetrically at 325 nm/465 nm.
(§2) Results were converted to percent inhibition, and the EC50 (M) for each reaction was determined using the XLfit program from IDBS (ID Business Solutions Ltd., 2 Occam Court, Surrey Research Park, Guildford, Surrey, GU2 7QB UK). The EC50 represents the concentration of a compound where 50% of its maximal effect is observed. The pEC50 is defined as the negative logarithm of the EC50; a higher pEC50 value therefore corresponds to higher potency in the assay.

Human recombinant MAO-B = Human recombinant MAO-B (Homo sapiens (Human), UniProt P27338); test: MAO-B enzymatic assay (fluorometric, kynuramine); assay type: biochemical; conditions: human recombinant MAO-B expressed in insect cells, 50 μm kynuramine, pH 7.4, 37° C.; values given as ranges; read-out: MAO-B (pEC50) (converted)
Description: as §1, §2
Representative compounds of the invention were evaluated in the MAO-B enzymatic assay. Typically, the compounds of the invention show MAO-B inhibitory properties at a concentration of 0.1 to 10 μM, typically at 5-100%.

Human recombinant MAO-A, sequence (P21397 whole entry): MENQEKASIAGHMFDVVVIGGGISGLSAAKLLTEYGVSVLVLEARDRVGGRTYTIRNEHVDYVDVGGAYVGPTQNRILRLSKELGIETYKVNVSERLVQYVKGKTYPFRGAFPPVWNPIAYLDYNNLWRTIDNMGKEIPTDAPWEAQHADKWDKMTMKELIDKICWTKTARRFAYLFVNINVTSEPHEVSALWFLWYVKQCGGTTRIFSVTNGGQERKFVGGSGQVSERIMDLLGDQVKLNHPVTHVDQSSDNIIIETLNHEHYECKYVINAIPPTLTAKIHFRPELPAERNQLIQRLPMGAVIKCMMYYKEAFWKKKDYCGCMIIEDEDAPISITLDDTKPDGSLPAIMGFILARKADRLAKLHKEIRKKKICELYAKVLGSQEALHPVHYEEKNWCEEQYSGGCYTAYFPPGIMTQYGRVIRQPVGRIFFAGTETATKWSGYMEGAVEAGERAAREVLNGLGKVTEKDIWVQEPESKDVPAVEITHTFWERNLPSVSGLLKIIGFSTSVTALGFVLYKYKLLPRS
Human recombinant MAO-B, sequence (P27338 whole entry): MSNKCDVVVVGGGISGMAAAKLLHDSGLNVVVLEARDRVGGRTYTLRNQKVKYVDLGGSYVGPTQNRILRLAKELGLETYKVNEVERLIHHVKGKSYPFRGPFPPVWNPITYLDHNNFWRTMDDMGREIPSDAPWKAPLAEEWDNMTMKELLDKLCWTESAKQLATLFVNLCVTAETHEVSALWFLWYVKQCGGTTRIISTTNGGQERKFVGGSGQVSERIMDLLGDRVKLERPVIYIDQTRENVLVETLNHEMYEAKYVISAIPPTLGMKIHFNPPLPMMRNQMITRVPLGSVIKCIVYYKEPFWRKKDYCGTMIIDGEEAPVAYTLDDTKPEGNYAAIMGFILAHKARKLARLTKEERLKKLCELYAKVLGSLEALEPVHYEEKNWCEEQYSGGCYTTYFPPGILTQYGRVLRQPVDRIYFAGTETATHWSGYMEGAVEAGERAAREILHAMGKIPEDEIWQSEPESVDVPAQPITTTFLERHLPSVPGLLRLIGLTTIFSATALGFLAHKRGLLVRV

| MAO-A/MAO-B (Human recombinant MAO-A) | EC50 (Human recombinant MAO-B) [nM] | SMILES |
| --- | --- | --- |
| >10-100 |  | CCOC(=O)c1cnc2cc(OCCc3cccc(F)c3)ccc2c1 [Example 24, Ethyl 7-(3-fluorophenethoxy)quinoline-3-carboxylate] |
| >10-100 |  | CCOC(=O)c1cnc2cc(OCc3cccc([N+](=O)[O-])c3)ccc2c1 [Example 18, Ethyl 7-((3-nitrobenzyl)oxy)quinoline-3-carboxylate] |
| >200 |  | CC(C)(O)c1cnc2cc(OCc3ccc(F)cc3)ccc2c1 [Example 27, 2-(7-((4-Fluorobenzyl)oxy)quinolin-3-yl)propan-2-ol] |
| >10-100 |  | CCOC(=O)c1cnc2cc(OCc3ccc(Cl)cc3)ccc2c1 [Example 1, Ethyl 7-[(4-chlorophenyl)methoxy]quinoline-3-carboxylate] |
| >200 |  | CCOC(=O)c1cnc2cc(OCc3cc(F)cc(F)c3)ccc2c1 [Example 15, Ethyl 7-((3,5-difluorobenzyl)oxy)quinoline-3-carboxylate] |
| >100-200 |  | CCOC(=O)c1cnc2cc(OCc3ccc(F)cc3)ccc2c1 [Example 2, Ethyl 7-[(4-fluorophenyl)methoxy]quinoline-3-carboxylate] |
| 1-10 |  | CCOC(=O)c1cnc2cc(OCc3ccc([N+](=O)[O-])cc3)ccc2c1 [Example 11, Ethyl 7-((4-nitrobenzyl)oxy)quinoline-3-carboxylate] |
| >100-200 |  | CCOC(=O)c1cnc2cc(OCc3cccc(OC)c3)ccc2c1 [Example 9, Ethyl 7-((3-methoxybenzyl)oxy)quinoline-3-carboxylate] |
| >100-200 |  | CCOC(=O)c1cnc2cc(OCc3cccc(C)c3)ccc2c1 [Example 7, Ethyl 7-((3-methylbenzyl)oxy)quinoline-3-carboxylate] |
| >10-100 |  | CCOC(=O)c1cnc2cc(OCc3ccc(C(F)(F)F)cc3)ccc2c1 [Example 6, Ethyl 7-((4-(trifluoromethyl)benzyl)oxy)quinoline-3-carboxylate] |
| >200 |  | CCOC(=O)c1cnc2cc(OCc3ccc(F)c(F)c3)ccc2c1 [Example 14, Ethyl 7-((3,4-difluorobenzyl)oxy)quinoline-3-carboxylate] |
| >200 |  | CCOC(=O)c1cnc2cc(OCc3cc(F)c(F)c(F)c3)ccc2c1 [Example 16, Ethyl 7-((3,4,5-trifluorobenzyl)oxy)quinoline-3-carboxylate] |
| >200 |  | CCOC(=O)c1cnc2cc(OCc3ccc(F)c(C(F)(F)F)c3)ccc2c1 [Example 12, Ethyl 7-((4-fluoro-3-(trifluoromethyl)benzyl)oxy)quinoline-3-carboxylate] |
| >10-100 |  | CCOC(=O)c1cnc2cc(OCc3ccc(C)cc3)ccc2c1 [Example 8, Ethyl 7-((4-methylbenzyl)oxy)quinoline-3-carboxylate] |
| >100-200 |  | CCOC(=O)c1cnc2cc(OCc3cccc(C(F)(F)F)c3)ccc2c1 [Example 5, Ethyl 7-((3-(trifluoromethyl)benzyl)oxy)quinoline-3-carboxylate] |
| >10-100 |  | CCOC(=O)c1cnc2cc(OCCc3cccc(Cl)c3)ccc2c1 [Example 25, Ethyl 7-(3-chlorophenethoxy)quinoline-3-carboxylate] |
| >10-100 |  | CCOC(=O)c1cnc2cc(OCc3ccc(OC)cc3)ccc2c1 [Example 10, Ethyl 7-((4-methoxybenzyl)oxy)quinoline-3-carboxylate] |
| >10-100 |  | CCOC(=O)c1cnc2cc(OCc3cccc(Cl)c3)ccc2c1 [Example 3, Ethyl 7-[(3-chlorophenyl)methoxy]quinoline-3-carboxylate] |
| 1-10 |  | CCOC(=O)c1cnc2cc(OCc3cccc(F)c3)ccc2c1 [Example 4, Ethyl 7[(3-fluorophenyl)methoxy]quinoline-3-carboxylate] |
|  | 100 to 1000 | CCOC(=O)Cc1cnc2cc(OCc3cccc(Cl)c3)ccc2c1 [Example 51, Ethyl 2-(7-((3-chlorobenzyl)oxy)quinolin-3-yl)acetate] |
| >100-200 |  | CCOC(=O)c1cnc2cc(OCc3ccc(F)c(Cl)c3)ccc2c1 [Example 17, Ethyl 7-((3-chloro-4-fluorobenzyl)oxy)quinoline-3-carboxylate] |
| >100-200 |  | CCOC(=O)c1cnc2cc(OCc3cc(F)cc(C(F)(F)F)c3)ccc2c1 [Example 13, Ethyl 7-((3-fluoro-5-(trifluoromethyl)benzyl)oxy)quinoline-3-carboxylate] |
